Results on 3 compounds are retold here after patent US20120244102A1, “AGENT FOR PREVENTING OR TREATING CROHN'S DISEASE, COMPRISING ORGANIC ACID POLYMER” (SANWA KAGAKU KENKYUSHO CO., LTD., priority 2010, published 2012).

The subject of this test is mouse TNBS-induced Crohn's disease model. As to the kind of experiment: mouse TNBS-induced Crohn's disease model (pathological score, intestinal lesion score). Conditions: for intestinal lesion score: scale 0-10, control group 8.1. The class given is in vivo. The method, then:
Seven-week-old male BALB/c Cr Slc mice were purchased from Japan SLC, Inc. After 5 days of breeding for taming, the mice were divided into 5 groups so as to eliminate the difference between body weights, and subjected to an experiment.
The hair on 2 square-cm of the abdomen of the mouse was shaved, and 1% TNBS was applied to the skin. At 7 days after the application of TNBS, the mouse was fixed under anesthesia by halothane inhalation, and 100 μL of 2.0% TNBS was injected from the rectum to initiate intestinal lesions in Crohn's disease.
In the propagermanium-administered group, 0.015% of the propagermanium was mixed with a standard feedstuff for mice CRF-1 (manufactured by Oriental Yeast Co., Ltd.) and administered by ad libitum feeding from immediately after the injection of TNBS to 3 days after the initiation. The average dose during the period of the administration of the propagermanium was calculated to be about 7.5 mg/kg/day as a dose of the propagermanium per day, from the body weight and food consumption.
In the prednisolone-administered group as a positive control, prednisolone was administered once a day as 10 mL/kg of 0.5% CMC suspension using an oral canula for mice from immediately after the injection of TNBS to 3 days after the initiation. The dose was set to be 1 mg/kg/day that is the maximum amount of a clinical general dose (30 to 40 mg/day/person).
In the salazosulfapyridine-administered group as a positive control, salazosulfapyridine was administered twice a day for 3 days as 10 mL/kg of 0.5% CMC suspension using an oral canula for mice from immediately after the injection of TNBS to 3 days after the initiation. Two dose groups: a low dose group (133 mg/kg/day) that is the maximum amount in view of a clinical general dose and a high dose group (400 mg/kg/day) that is effective in rat TNBS models, were set.
At 1, 2 and 3 days after the TNBS initiation, the pathological score (the total of the scores of weight-loss, diarrhea/loose stool and occult blood/hemorrhage) was evaluated according to the following criteria.
(A) Weight-loss score (when the body weight before the TNBS initiation is considered to be 100%) • 0: No decrease • 1: Decreased by within 5% • 2: Decreased by 5-10% • 3: Decreased by 10-20% • 4: Decreased by more than 20%
(B) Diarrhea/loose stool score • 0: Normal. A solid form is maintained. • 2: Semi-solid loose stool. Wet, and readily collapses when being touched. • 4: Diarrhea, with flowability.
(C) Occult blood/hemorrhage score • 0: Normal. No blood is incorporated in stool. • 2: Occult blood. Blood is incorporated in stool. Perianal is slightly dirty. • 4: Bloody stool. Blood is incorporated in stool. Perianal is dirty with blood.
At 3 days after the TNBS initiation, Evans Blue was administered intravenously. At 30 minutes after the administration, the mouse was sacrificed by cervical dislocation, from the colon to the anus were excised and the inner cavity was washed with physiological saline, the lumen was opened, and the degree of the lesions was scored. The intestinal lesion score was evaluated by observing the colon by using a stereomicroscope according to the following criteria. • 0: No damage. • 1: Hyperemia • 2: Hyperemia and thickening of gut walls. No ulcer. • 3: Ulcer is present, but is not thickened. • 4: Plural lesion sites are present. • 5: Widespread lesion sites (1 cm or more in total) • 6: Widespread lesion sites (1.5 cm or more in total) • 7: Widespread lesion sites (2 cm or more in total) • 8: Widespread lesion sites (2.5 cm or more in total) • 9: Widespread lesion sites (3 cm or more in total) • 10: Widespread lesion sites (3.5 cm or more in total)

Take `C[C@]12C=CC(=O)C=C1CC[C@@H]1[C@@H]2[C@@H](O)C[C@@]2(C)[C@H]1CC[C@]2(O)C(=O)CO` [prednisolone]: the “pathological score (total of weight-loss, diarrhea/loose stool and occult blood/hemorrhage scores)” value is, setting by setting: (1 mg/kg prednisolone oral, 2 days after the initiation) “effect was not observed”; (1 mg/kg prednisolone oral, 3 days after the initiation) “effect was observed”. Further, the intestinal lesion score (prednisolone 1 mg/kg oral, 3 days after the TNBS initiation) is recorded as 5.2.
For the compound `O=C(O)c1cc(/N=N/c2ccc(S(=O)(=O)Nc3ccccn3)cc2)ccc1O` [salazosulfapyridine], the “pathological score (total of weight-loss, diarrhea/loose stool and occult blood/hemorrhage scores)” value was “significant improving effect was not observed” (133 mg/kg salazosulfapyridine oral (low dose group)); “improving effect was found” (400 mg/kg salazosulfapyridine oral (high dose group), 2 days after the initiation); “improving effect was found” (400 mg/kg salazosulfapyridine oral (high dose group), 3 days after the initiation). The same compound displayed an intestinal lesion score (salazosulfapyridine 133 mg/kg oral, 3 days after the TNBS initiation) of 6.1 and an intestinal lesion score (salazosulfapyridine 400 mg/kg oral, 3 days after the TNBS initiation) of 6.8.
As for “3-oxygermylpropionic acid polymer [propagermanium]”, the “pathological score (total of weight-loss, diarrhea/loose stool and occult blood/hemorrhage scores)” value (7.5 mg/kg propagermanium mixed in feed, 2 days after the TNBS initiation) is given as “significant effect of improving the pathological score was confirmed”; the “pathological score (total of weight-loss, diarrhea/loose stool and occult blood/hemorrhage scores)” value (7.5 mg/kg propagermanium mixed in feed, 3 days after the TNBS initiation) is reported as “significant effect of improving the pathological score was confirmed”.
